# Data reported in US20180000778A1, “SMALL MOLECULE ANTAGONISTS OF DUSP5 AND METHODS OF USE” (THE MEDICAL COLLEGE OF WISCONSIN, INC., priority 2015, published 2018).
# Assays:
# [1] = tested on: pERK levels in HUVEC cells; experiment: pERK levels in HUVEC cells, western blot; format: cell-based, Human; conditions: HUVECs incubated 2 hours, pERK relative to total ERK; Na3VO4 at 200 μM
# Procedure: Cell Culture and Western Blots.
# Human Umbilical Vein Endothelial Cells (HUVECs) were maintained in EBM2 media (Lonza, CC-3156) supplemented with a combined serum and growth factor kit (Lonza, CC-4176). Cells were incubated with the indicated concentrations of drug for 2 h and lysed with RIPA buffer (Sigma, R0278) on ice. Cell lysates were cleared by centrifugation at 16,300×g for 30 min. The resulting supernatants were isolated and protein concentration determined by Lowry assay (DC protein assay, BioRad). 2× laemmli sample buffer was added to equal amounts of protein and separated by SDS-PAGE. The protein gels were transferred to polyvinylidene difluoride (PVDF) and immunoblotted using antibodies to phosphorylated ERK (Cell Signaling, #9106) and total ERK (Cell Signaling, #9102). Bound antibodies were visualized using horseradish peroxidase-linked anti-rabbit IgG, anti-mouse IgG (Cell Signaling Tech., #7074 and #7076) and ECL reagents (Thermo Scientific, 34080) according to the manufacturer's protocol.
# [2] = Aggregation of compounds (nephelometry; detergent treatment); format: physicochemical
# Procedure: Nephelometry is a technique for measuring the relative aggregation of particles in solution, based on the light-scattering properties of molecular aggregates (30). To explore the ability of the chemicals studied herein to form aggregates, which can lead to artifactual inhibition effects, nephelometry was performed. Compounds were tested for aggregation in 96-well plates using a buffer containing 100 mM Tris base, 100 mM sodium chloride, and 5 mM magnesium chloride at pH 7.5. Each compound analyzed in these experiments contained concentrations of compound ranging from 10-100 μM, recorded in quadruplet. Each plate was analyzed at two separate gain values of 52 and 72. Data were collected using a BMG NEPHELOstar Plus, equipped with a 635 nm laser.
# To investigate whether Suramin aggregates in solution, a property often investigated with small molecules, we performed detergent treatment assays. […] NTS and Suramin were compared using DUSP5 PD IC50 assays performed with and without detergent. […] We concluded that Suramin forms aggregates in vitro which can lead to non-specific protein inhibition effects. Beyond any adverse implications for repurposing Suramin in this project, the aggregation phenomenon raises more global concerns regarding the current clinical use of Suramin, and may in part explain some of the known toxicity associated with Suramin (32).
# DUSP22 (MKPX) = DUSP22 (MKPX) (Homo sapiens, UniProt Q9NRW4); experiment: Phosphatase profiling, pNPP substrate; format: biochemical; conditions: 30 μM, triplicate; negative = inhibition; listed as CSDDD2320
# Procedure: (§1) Assays were performed to profile compound CSDDD2320 against 21 phosphatase targets at 1 concentration (30 μM) in triplicate measurements. The aim was to identify whether the compound can affect the activity of the various phosphatase targets selected.
# (§2) Protein Phosphatase Assay: The DUSP22, PTPN2 (TC-PTP), PTPN7 (LC-PTP), PTPRA (LRP), PTPRC (CD45), PTPRE, PTPRS, PTPN1(PTP1B) and PTPN13(FAP-1) phosphatase activity was determined by performing assays at 37° C. for 15 minutes in a final volume of 100 μl according to the following assay reaction recipe:
# (§3) Component 1. 5 μl of diluted active protein phosphatase
# (§4) Component 2. 50 μl of 1.5 mM pNPP substrate assay solution
# (§5) Component 3. 25 μl of phosphatase assay buffer
# (§6) Component 4. 20 μl of compound (150 μM) or 10% DMSO
# (§7) The assay was started by incubating the reaction mixture at 37° C. for 15 minutes. After the 15 minute incubation period, the assay was terminated by the addition of 25 μl of 2N NaOH stopping solution. The absorbance of the reaction solution was measured in a spectrophotometer at 405 nm. Blank control was set up that included all the assay components except the addition of the pNPP substrate (replaced with equal volume of phosphatase assay buffer). The corrected activity for various phosphatase targets was determined by removing the blank control value.
# PTPN1 (PTP1B) = PTPN1 (PTP1B) (Homo sapiens, UniProt P18031); experiment: Phosphatase profiling, pNPP substrate; format: biochemical; conditions: 30 μM, triplicate; negative = inhibition
# Procedure: as §1, §2, §3, §4, §5, §6, §7
# PTPN13 (FAP-1) = PTPN13 (FAP-1) (Homo sapiens, UniProt Q12923); experiment: Phosphatase profiling, pNPP substrate; format: biochemical; conditions: 30 μM, triplicate; positive = activation
# Procedure: as §1, §2, §3, §4, §5, §6, §7
# PTPN2 (TC-PTP) = PTPN2 (TC-PTP) (Homo sapiens, UniProt P17706); experiment: Phosphatase profiling, pNPP substrate; format: biochemical; conditions: 30 μM, triplicate; positive = activation
# Procedure: as §1, §2, §3, §4, §5, §6, §7
# PTPN7 (LC-PTP) = PTPN7 (LC-PTP) (Homo sapiens, UniProt P35236); experiment: Phosphatase profiling, pNPP substrate; format: biochemical; conditions: 30 μM, triplicate; positive = activation
# Procedure: as §1, §2, §3, §4, §5, §6, §7
# PTPRA (LRP) = PTPRA (LRP) (Homo sapiens, UniProt P18433); experiment: Phosphatase profiling, pNPP substrate; format: biochemical; conditions: 30 μM, triplicate; positive = activation
# Procedure: as §1, §2, §3, §4, §5, §6, §7
# PTPRC (CD45) = PTPRC (CD45) (Homo sapiens, UniProt P08575); experiment: Phosphatase profiling, pNPP substrate; format: biochemical; conditions: 30 μM, triplicate; negative = inhibition; listed as CSDDD2320
# Procedure: as §1, §2, §3, §4, §5, §6, §7
# PTPRE = PTPRE (Homo sapiens, UniProt P23469); experiment: Phosphatase profiling, pNPP substrate; format: biochemical; conditions: 30 μM, triplicate; negative = inhibition; listed as CSDDD2320
# Procedure: as §1, §2, §3, §4, §5, §6, §7
# PTPRS (PTP-sigma) = PTPRS (PTP-sigma) (Homo sapiens, UniProt Q13332); experiment: Phosphatase profiling, pNPP substrate; format: biochemical; conditions: 30 μM, triplicate; negative = inhibition
# Procedure: as §1, §2, §3, §4, §5, §6, §7
# CDC25C = CDC25C (Homo sapiens, UniProt P30307); experiment: Phosphatase profiling, Biomol Green; format: biochemical; conditions: 30 μM, triplicate; positive = activation
# Procedure: as §1
# The PTPN6 (SHP1), PTPRF (LAR), PP1A, PP1B, PP2A, PTPN12(PTP-PEST), PTPN11(SHP2), CDC25A, CDC25B, CDC25C, PP2Ca, and PP2Cg phosphatase activity was determined by performing assays at 37° C. for 15 minutes in a final volume of 50 μl according to the following assay reaction recipe:
# Component 1. 10 μl of diluted active protein phosphatase
# Component 2. 5 μl of 1 mM tyrosine phosphopeptide-2 substrate (for PTPN6, PTPRF, PTPN12, and PTPN11) or threonine phosphopeptide substrate (for PP1A, PP1B, PP2A and PP2Cg) or PI(3,4,5)P3 substrate (for PTEN) or OMFP substrate (for CDC25A, CDC25B and CDC25C)
# as §5
# Component 4. 10 μl of compound (150 μM) or 10% DMSO
# The assay was started by incubating the reaction mixture at 37° C. for 15 minutes. After the 15 minutes incubation period, the assay was terminated by the addition of 100 μl of Biomol Green reagent. The absorbance of the reaction solution was measured in a spectrophotometer at 650 nm. Blank control was set up that included all the assay components except the addition of the tyrosine phosphopeptide-2 substrate or related substrate (replace with equal volume of phosphatase assay buffer). The corrected activity for various phosphatase targets was determined by removing the blank control value.
# Sequence of PTPRE (P23469 20-700, species assumed): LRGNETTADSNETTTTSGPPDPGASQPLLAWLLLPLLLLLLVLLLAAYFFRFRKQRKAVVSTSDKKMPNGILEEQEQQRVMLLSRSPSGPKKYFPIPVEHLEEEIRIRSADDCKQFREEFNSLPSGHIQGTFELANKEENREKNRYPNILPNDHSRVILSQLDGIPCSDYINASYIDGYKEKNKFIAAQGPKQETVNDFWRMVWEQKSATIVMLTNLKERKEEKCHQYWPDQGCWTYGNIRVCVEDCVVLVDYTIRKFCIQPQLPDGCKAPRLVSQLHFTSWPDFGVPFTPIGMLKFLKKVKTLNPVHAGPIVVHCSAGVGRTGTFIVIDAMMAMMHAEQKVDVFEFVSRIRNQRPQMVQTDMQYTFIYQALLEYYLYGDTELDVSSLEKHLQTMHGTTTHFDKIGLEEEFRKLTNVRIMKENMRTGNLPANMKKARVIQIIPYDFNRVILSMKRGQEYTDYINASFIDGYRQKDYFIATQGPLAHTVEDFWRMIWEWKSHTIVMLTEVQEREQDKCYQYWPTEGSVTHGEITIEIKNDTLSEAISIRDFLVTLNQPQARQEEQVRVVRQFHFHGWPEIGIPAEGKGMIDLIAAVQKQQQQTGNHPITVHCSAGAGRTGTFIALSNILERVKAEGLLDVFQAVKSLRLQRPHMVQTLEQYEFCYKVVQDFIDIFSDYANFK
# Sequence of PTPRC (CD45) (P08575 26-1306, species assumed): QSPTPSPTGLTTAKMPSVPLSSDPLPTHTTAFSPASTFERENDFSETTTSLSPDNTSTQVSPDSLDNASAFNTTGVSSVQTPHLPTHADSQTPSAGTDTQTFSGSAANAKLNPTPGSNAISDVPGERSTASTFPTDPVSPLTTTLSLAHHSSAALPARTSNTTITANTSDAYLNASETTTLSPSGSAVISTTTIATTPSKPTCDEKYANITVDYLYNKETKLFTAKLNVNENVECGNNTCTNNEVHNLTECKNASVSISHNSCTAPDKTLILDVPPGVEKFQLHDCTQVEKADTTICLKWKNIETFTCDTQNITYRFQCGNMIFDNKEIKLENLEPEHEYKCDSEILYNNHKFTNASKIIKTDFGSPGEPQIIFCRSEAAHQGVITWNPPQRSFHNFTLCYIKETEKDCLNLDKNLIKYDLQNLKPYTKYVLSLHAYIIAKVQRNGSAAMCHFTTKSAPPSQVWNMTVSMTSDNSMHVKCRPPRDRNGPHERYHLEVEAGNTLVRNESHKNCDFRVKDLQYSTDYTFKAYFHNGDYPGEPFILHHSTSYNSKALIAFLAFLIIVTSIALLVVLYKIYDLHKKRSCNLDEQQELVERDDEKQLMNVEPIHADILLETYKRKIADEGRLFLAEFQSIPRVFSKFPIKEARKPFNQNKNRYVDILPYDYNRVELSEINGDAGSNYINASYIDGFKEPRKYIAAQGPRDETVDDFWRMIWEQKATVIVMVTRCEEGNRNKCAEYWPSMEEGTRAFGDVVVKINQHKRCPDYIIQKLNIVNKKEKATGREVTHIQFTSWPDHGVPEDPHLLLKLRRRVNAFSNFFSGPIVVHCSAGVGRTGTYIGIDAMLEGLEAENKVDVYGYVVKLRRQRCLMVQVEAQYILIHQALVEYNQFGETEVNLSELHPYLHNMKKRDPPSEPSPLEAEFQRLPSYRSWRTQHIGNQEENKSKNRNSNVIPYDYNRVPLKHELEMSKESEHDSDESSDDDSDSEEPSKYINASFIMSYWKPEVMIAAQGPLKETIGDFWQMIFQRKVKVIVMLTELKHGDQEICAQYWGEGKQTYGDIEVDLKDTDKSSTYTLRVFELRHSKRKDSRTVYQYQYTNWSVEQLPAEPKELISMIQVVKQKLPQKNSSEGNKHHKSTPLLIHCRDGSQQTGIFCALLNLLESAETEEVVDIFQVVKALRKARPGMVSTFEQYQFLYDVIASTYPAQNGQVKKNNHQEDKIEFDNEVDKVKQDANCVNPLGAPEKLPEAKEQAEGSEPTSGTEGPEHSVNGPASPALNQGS
# Sequence of DUSP22 (MKPX) (Q9NRW4 whole entry, species assumed): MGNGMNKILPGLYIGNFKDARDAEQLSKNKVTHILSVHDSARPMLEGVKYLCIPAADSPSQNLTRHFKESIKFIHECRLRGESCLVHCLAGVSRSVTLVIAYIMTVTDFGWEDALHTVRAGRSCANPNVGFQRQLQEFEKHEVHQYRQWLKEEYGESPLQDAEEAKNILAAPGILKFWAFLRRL
# Sequence of PTPN13 (FAP-1) (Q12923 whole entry, species assumed): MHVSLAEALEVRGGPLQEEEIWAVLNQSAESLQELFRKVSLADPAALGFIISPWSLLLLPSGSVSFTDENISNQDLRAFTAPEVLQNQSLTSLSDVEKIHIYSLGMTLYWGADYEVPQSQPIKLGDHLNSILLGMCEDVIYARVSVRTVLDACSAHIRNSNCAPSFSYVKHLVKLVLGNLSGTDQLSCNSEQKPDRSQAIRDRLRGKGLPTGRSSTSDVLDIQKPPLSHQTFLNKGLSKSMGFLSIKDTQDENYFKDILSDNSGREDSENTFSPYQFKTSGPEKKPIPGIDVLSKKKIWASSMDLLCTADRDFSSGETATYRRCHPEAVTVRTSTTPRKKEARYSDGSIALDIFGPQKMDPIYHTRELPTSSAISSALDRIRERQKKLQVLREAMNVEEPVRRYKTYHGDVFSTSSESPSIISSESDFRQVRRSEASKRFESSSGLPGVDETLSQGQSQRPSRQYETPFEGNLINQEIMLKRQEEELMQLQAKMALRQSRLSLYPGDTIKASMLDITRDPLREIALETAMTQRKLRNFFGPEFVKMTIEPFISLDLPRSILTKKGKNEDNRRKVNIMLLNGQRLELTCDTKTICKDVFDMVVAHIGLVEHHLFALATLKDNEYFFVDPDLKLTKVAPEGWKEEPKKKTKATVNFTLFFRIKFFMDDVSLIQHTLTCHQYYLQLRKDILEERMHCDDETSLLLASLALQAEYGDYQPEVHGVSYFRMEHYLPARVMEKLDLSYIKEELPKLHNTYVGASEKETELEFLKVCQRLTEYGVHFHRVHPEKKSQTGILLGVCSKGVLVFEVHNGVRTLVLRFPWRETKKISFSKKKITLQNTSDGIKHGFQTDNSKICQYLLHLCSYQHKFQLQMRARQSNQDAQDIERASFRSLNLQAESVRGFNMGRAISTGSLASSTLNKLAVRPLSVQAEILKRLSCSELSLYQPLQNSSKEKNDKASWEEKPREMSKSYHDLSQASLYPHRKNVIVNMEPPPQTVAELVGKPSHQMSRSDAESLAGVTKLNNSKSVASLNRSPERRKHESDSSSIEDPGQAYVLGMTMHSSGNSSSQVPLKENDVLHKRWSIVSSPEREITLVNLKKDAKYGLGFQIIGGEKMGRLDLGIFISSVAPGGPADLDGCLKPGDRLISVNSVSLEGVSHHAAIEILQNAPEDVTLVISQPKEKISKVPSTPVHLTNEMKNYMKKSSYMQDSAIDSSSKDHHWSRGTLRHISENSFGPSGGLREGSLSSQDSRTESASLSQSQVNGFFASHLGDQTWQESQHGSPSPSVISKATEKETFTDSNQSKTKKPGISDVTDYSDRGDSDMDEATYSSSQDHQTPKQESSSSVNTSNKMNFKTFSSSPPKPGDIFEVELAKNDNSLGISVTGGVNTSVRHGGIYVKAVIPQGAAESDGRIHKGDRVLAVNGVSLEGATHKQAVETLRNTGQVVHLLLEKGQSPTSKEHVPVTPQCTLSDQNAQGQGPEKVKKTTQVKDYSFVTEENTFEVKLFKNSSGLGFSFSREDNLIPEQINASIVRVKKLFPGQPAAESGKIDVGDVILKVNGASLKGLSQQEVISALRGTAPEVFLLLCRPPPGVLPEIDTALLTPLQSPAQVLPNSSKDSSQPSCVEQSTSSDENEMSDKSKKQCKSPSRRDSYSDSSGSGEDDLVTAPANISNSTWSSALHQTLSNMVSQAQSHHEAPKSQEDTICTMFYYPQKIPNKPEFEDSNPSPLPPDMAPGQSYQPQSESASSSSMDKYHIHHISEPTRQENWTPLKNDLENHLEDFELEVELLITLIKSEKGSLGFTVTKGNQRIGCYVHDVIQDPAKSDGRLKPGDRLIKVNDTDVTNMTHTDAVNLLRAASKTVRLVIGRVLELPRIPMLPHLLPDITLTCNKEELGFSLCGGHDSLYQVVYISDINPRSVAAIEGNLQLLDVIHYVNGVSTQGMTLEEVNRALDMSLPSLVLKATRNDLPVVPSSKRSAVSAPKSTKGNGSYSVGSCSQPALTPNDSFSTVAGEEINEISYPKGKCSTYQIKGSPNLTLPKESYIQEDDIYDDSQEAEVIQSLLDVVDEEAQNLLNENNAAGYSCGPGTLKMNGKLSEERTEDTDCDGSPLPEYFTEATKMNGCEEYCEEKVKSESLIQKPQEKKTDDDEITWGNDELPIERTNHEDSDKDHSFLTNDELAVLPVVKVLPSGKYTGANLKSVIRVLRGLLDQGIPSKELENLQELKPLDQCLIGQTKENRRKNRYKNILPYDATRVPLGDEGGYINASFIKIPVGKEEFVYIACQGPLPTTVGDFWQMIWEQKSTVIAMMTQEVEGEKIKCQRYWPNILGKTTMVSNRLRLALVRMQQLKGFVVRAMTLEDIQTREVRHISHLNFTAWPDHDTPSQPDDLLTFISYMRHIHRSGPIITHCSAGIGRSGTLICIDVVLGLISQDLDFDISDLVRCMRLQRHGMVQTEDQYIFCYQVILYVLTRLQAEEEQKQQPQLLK
# Sequence of PTPN2 (TC-PTP) (P17706 whole entry, species assumed): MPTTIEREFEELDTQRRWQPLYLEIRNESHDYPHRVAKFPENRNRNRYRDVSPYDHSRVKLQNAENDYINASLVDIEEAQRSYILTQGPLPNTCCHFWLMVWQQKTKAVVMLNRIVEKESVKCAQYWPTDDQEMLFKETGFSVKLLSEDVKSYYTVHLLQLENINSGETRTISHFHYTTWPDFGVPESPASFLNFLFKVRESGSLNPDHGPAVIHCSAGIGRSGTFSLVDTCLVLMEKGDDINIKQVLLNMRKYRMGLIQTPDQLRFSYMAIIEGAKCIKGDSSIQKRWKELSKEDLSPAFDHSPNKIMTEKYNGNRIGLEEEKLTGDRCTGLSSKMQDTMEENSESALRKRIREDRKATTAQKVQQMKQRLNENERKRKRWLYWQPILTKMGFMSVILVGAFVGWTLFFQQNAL
aggregation [2],% Change (activity change compared to control) (DUSP22 (MKPX)) [%],% Change (activity change compared to control) (PTPN1 (PTP1B)) [%],% Change (activity change compared to control) (PTPN13 (FAP-1)) [%],% Change (activity change compared to control) (PTPN2 (TC-PTP)) [%],% Change (activity change compared to control) (PTPN7 (LC-PTP)) [%],% Change (activity change compared to control) (PTPRA (LRP)) [%],% Change (activity change compared to control) (PTPRC (CD45)) [%],% Change (activity change compared to control) (PTPRE) [%],% Change (activity change compared to control) (PTPRS (PTP-sigma)) [%],% Change (activity change compared to control) (CDC25C) [%],Structure (SMILES),effect on pERK levels [1]
–,–,–,–,–,–,–,–,–,–,–,"O=S(=O)([O-])c1ccc2[nH]c3c(S(=O)(=O)[O-])cc(S(=O)(=O)[O-])cc3c2c1.[Na+].[Na+].[Na+] [RR505, Carbazole-1,3,6-trisulfonic acid, Trisodium Salt]",do not show biologically useful levels of potency
no propensity to aggregate,−13,−4,6,2,7,5,−12,−11,−6,4,O=S(=O)(O)c1cc(O)c2c(S(=O)(=O)O)cccc2c1 [RR527],–
